Measurements: patent US7459455B2, “Pyrimidine compounds” (SmithKline Beecham Corporation, priority 2002, dated 2008)
Structures can show the parent of a compound that is named as a salt.

Experiments:
Recombinant GST-Tie2 = molecular target: T1, Recombinant GST-Tie2 (Homo sapiens, UniProt Q02763); test: Tie2 Fluorescence Polarization Kinase Activity Assay (TIE2-FP); assay type: biochemical; settings: activated Tie2, 200 μM ATP
T1 construct: GST
Procedure: Tie2 Fluorescence Polarization Kinase Activity Assay: (TIE2-FP)
Activation of Recombinant Tie2 Activation:
Recombinant GST-Tie2 was activated by incubating the enzyme in 20 mM Tris-HCl, pH 7.5, 12 mM MgCl2, 100 mM NaCl, 20 μM sodium vanidate, 1 mM DT and 300 μM ATP at room temperature for 2 hours. The activation mixture was then passed through a NAP-25 desalting column (Pharmacia Biotech cat. no. 17-0852-O2) to remove the free ATP. The activated enzyme was stored as aliquots at −80° C. in 20 mM Tris-HCl, pH 7.5 and 100 mM NaCl.
The final assay conditions were 50 mM HEPES, pH 7.5, 5% DMSO (when screening compounds), 200 μM ATP, 5 mM MgCl2, 1 mM DTT, 50 μM sodium vanidate, 1 nM activated enzyme, and 200 μM peptide. IC50's of compounds were measured under subsaturating ATP (200 μM) and varing concentrations of activated Tie2 and peptide substrate (RFWKYEFWR-OH; MW 1873 Da, TFA salt). Panvera Anti-phosphotyrosine antibody (Cat#P2840) and PTK Green Tracer (Cat#P2842) were used to detect the phosphorylated peptide. Polarization was measured on a TECAN Polarion in 138-second cycles for 30 minutes at room temperature. IC50's were then determined from the % polarization using normal calculation methods.

GST-VEGFR2 = molecular target: T2, GST-VEGFR2 (Homo sapiens, UniProt P35968); test: VEGF-R2 Enzyme Assay (VEGF-E), LANCE method; assay type: biochemical; settings: GST-VEGFR2, 75 μM ATP, peptide phosphorylation
T2 construct: GST-VEGFR2, baculovirus expressed recombinant constructs of the intracellular domains of human TIE2 tagged by GST; made in house
Excerpt: VEGF-R2 Enzyme Assay VEGF-E)
The VEGF enzyme assay used the LANCE method (Wallac) and GST-VEGFR2, baculovirus expressed recombinant constructs of the intracellular domains of human TIE2 tagged by GST. The method measured the ability of the purified enzymes to catalyse the transfer of the γ-phosphate from ATP onto tyrosine residues in a biotinylated synthetic peptide, (biotin-aminohexyl-EEEEYFELVAKKKK-NH2). This peptide phosphorylation was detected using the following procedure: GST-VEGFR2 was incubated for 40-60 mins at room temperature with 75 μM ATP, 5 mM MgCl2, 0.1 mM DTT, 0.1 mg/mL BSA and the test compound (diluted from a 10 mM stock in DMSO for desired concentration) in 100 mM HEPES buffer. The reaction was stopped by the addition of EDTA (final concentration 50 mM). Streptavidin linked-APC (allophycocyanin, Molecular Probe) and Europium-labeled anti-phosphorylated tyrosile antibody (Wallac) were then added at the final concentration of 15 nM and 1 nM, respectively. The APC signal was measured using an ARVO multilabel counter (Wallac Berthold, Japan). The percent inhibition of activity was calculated relative to blank control wells. The concentration of test compound that inhibits 50% of activity (IC50) was interpolated using nonlinear regression (Levernberg-Marquardt) and the equation, γ=Vmax (1−x/(K+x))+Y2, where “K” was equal to the IC50. The IC50 values were converted to pIC50 values, i.e., −log IC50 in Molar concentration.

[1] = tested on: Human umbilical cord endothelial cells (HUVEC); test: VEGF-Driven Cellular Proliferation Assay: BrdU Incorporation Assay (VEGF-C); assay type: cell-based
Procedure: VEGF-Driven Cellular Proliferation Assay: BrdU Incorporation Assay (VEGF-C)
Human umbilical cord endothelial cells (HUVEC, Clonetics, CC2519) were passaged in Type I collagen-coated 100-mm petridishes in EGM-MV medium (Clonetics, CC3125) at 37 C in a humidified 5% CO2, 95% air incubator. (HUVEC passaged more than 6 times in vitro were discarded and not subjected to assaying.) The cells were harvested using trypsin/EDTA, counted using a haemocytometer and plated at 5000 cells/well in a Type I-collagen coated 96-well plate (Becton Dickinson, 354407) in M199 medium (Gibco BRL, 12340-030) containing 5% FBS (Hyclone, A 1115-L) and gentamicin (at 50 ug/ml, Gibco BRL). After incubation overnight at 37° C., the media were replaced with 100 ul of M199 serum-free medium containing compounds at various concentrations with 0.6% DMSO and gentamicin. The compounds were diluted in serum-free M199 medium from 10 mM stock solutions prepared in 100% DMSO. After a 30 min incubation at 37° C. the cells were fed with 100 ul of serum-free M199 medium containing gentamicin, 0.2% culture-grade bovine serum albumin (BSA, Sigma A1993) and 20 ng/ml of VEGF (R&D systems, 293-VE) or 0.6 ng/ml of basic FGF (R&D systems, 233-FB), and cultured at 37° C. for another 24 h. The cells were pulsed with bromodeoxyuridine (BrdU at 10 μM in serum-free M199) at 37° C. for an additional 24 h. The incorporation of BrdU into the proliferating HUVEC were analyzed using BrdU Cell Proliferation ELISA (Roche Molecular Biochemicals, 1647229) according to the manufacturer's protocols. The optical density at 450 nm was measured with a multilabel counter (ARVO SX, Wallac). The percent inhibition of cell growth was calculated relative to blank control wells. The concentration of test compound that inhibits 50% of cell growth (IC50) was interpolated using nonlinear regression (Levernberg-Marquardt) and the equation, γ=Vmax (1−x/(K+x))+Y2, where “K” was equal to the IC50. The IC50 values were converted to pIC50 values, i.e., −log IC50 in Molar concentration.

T2 sequence (P35968 786-1356 limits assumed): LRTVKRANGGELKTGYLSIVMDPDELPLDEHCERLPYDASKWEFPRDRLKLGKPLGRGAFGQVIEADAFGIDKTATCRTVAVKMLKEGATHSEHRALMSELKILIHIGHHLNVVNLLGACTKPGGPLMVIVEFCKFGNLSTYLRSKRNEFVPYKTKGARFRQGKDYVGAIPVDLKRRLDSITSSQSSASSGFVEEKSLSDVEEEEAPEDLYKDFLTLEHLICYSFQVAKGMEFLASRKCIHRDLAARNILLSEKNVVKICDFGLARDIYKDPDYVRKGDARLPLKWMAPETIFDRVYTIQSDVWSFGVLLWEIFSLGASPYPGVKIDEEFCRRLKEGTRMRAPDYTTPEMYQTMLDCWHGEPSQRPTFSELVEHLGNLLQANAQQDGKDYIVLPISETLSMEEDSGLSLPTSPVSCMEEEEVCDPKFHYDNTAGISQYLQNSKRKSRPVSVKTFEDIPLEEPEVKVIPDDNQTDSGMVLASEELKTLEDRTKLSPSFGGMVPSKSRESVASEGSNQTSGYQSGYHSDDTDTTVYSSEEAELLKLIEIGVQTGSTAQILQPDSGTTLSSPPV
T1 sequence (Q02763 770-1124 limits assumed): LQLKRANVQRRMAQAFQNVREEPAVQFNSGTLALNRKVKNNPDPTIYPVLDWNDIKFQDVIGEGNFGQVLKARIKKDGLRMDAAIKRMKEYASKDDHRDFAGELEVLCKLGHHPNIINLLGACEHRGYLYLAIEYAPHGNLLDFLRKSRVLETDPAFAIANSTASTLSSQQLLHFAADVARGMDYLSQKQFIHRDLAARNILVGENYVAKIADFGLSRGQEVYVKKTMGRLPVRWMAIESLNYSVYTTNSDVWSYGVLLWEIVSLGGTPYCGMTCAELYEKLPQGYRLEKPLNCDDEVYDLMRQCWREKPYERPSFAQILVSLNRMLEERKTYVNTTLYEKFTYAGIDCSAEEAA

How did the IC50 (Recombinant GST-Tie2) turn out when `CN(c1ccc(NC(=O)Nc2cc(C(F)(F)F)ccc2F)cc1)c1ccnc(Nc2ccc(CS(C)(=O)=O)cc2)n1` [Example 13, N-[2-fluoro-5-(trifluoromethyl)phenyl]-N′-(4-{methyl[2-({4-(methylsulfonyl)methyl]phenyl}amino)pyrimidin-4-yl]amino}phenyl)urea hydrochloride] was run?
The IC50 was less than 100 nM.

And the IC50 (GST-VEGFR2)?
Its IC50 is less than 100 nM.

What about the IC50 [1] of the same compound?
The IC50 was less than 100 nM.

`CN(c1ccc(NC(=O)Nc2cc(C(F)(F)F)ccc2F)cc1)c1ccnc(Nc2cccc(S(N)(=O)=O)c2)n1` [Example 11, 3-({4-[{4-[({[2-Fluoro-5-(trifluoromethyl)phenyl]amino}carbonyl)amino]phenyl}(methyl)amino]pyrimidin-2-yl}amino)benzenesulfonamide] was tested. Which IC50 (Recombinant GST-Tie2) did it give?
The IC50 was less than 100 nM.

And the IC50 (GST-VEGFR2)?
The IC50 was less than 100 nM.

And the IC50 [1]?
Its IC50 is less than 100 nM.

Which IC50 (Recombinant GST-Tie2) does the source give for `CCS(=O)(=O)c1ccc(OC)c(Nc2nccc(N(C)c3ccc(NC(=O)Nc4cccc(Cl)c4)cc3)n2)c1` [Example 8, N-(3-Chlorophenyl)-N′-{4-[(2-{[5-(ethylsulfonyl)-2-methoxyphenyl]amino}pyrimidin-4-yl)(methyl)amino]phenyl}urea] here?
Its IC50 is less than 100 nM.

And the IC50 (GST-VEGFR2)?
The IC50 was less than 100 nM.

And the IC50 [1]?
Its IC50 is less than 100 nM.

Which IC50 (Recombinant GST-Tie2) does the source give for `CN(c1ccc(NC(=O)Nc2ccccc2)cc1)c1ccnc(Nc2cccc(S(N)(=O)=O)c2)n1` [Example 10, 3-({4-[{4-[(anilinocarbonyl)amino]phenyl}(methyl)amino]pyrimidin-2-yl}amino)benzenesulfonamide] here?
The IC50 was less than 100 nM.

And the IC50 (GST-VEGFR2)?
The IC50 was less than 100 nM.

What about the IC50 [1] of the same compound?
Its IC50 is less than 100 nM.

What does the source list for `CCc1cccc(NC(=O)Nc2ccc(N(C)c3ccnc(Nc4cccc(S(N)(=O)=O)c4)n3)cc2)c1` [Example 6, 3-({4-[[4-({[(3-ethylphenyl)amino]carbonyl}amino)phenyl](methyl)amino]pyrimidin-2-yl}amino)benzenesulfonamide]?
IC50 (Recombinant GST-Tie2): < 100 nM; IC50 (GST-VEGFR2): < 100 nM; IC50 [1]: < 100 nM

For `CCS(=O)(=O)c1ccc(OC)c(Nc2nccc(N(C)c3ccc(NC(=O)Nc4cccc(F)c4)cc3)n2)c1` [Example 18, N-{4-[(2-{[5-(Ethylsulfonyl)-2-methoxyphenyl]amino}pyrimidin-4-yl)(methyl)amino]phenyl}-N′-(3-fluorophenyl)urea], which IC50 (Recombinant GST-Tie2) is on record?
The IC50 was less than 100 nM.

And the IC50 (GST-VEGFR2)?
Its IC50 is less than 100 nM.

What about the IC50 [1] of the same compound?
The IC50 was less than 100 nM.

What does the source list for `CN(c1cccc(NC(=O)Nc2cccc(Cl)c2)c1)c1ccnc(Nc2cccc(S(N)(=O)=O)c2)n1` [Example 15, 3-({4-[[3-({[(3-Chlorophenyl)amino]carbonyl}amino)phenyl](methyl)amino]pyrimidin-2-yl}amino)benzenesulfonamide]?
IC50 (Recombinant GST-Tie2): < 100 nM; IC50 (GST-VEGFR2): < 100 nM; IC50 [1]: < 100 nM

How did the IC50 (Recombinant GST-Tie2) turn out when `CN(c1cccc(NC(=O)Nc2cc(C(F)(F)F)ccc2F)c1)c1ccnc(Nc2cccc(S(N)(=O)=O)c2)n1` [Example 14, 3-({4-[{3-[({[2-Fluoro-5-(trifluoromethyl)phenyl]amino}carbonyl)amino]phenyl}(methyl)amino]pyrimidin-2-yl}amino)benzenesulfonamide] was run?
Its IC50 is less than 100 nM.

And the IC50 (GST-VEGFR2)?
Its IC50 is less than 100 nM.

And the IC50 [1]?
The IC50 was less than 100 nM.

`CN(c1cccc(NC(=O)Nc2cccc(F)c2)c1)c1ccnc(Nc2cccc(S(N)(=O)=O)c2)n1` [Example 16, 3-({4-[[3-({[(3-Fluorophenyl)amino]carbonyl}amino)phenyl](methyl)amino]pyrimidin-2-yl}amino)benzenesulfonamide] was tested. Which IC50 (Recombinant GST-Tie2) did it give?
Its IC50 is 100 to 1000 nM.

What about the IC50 (GST-VEGFR2) of the same compound?
The IC50 was less than 100 nM.

What about the IC50 [1] of the same compound?
Its IC50 is less than 100 nM.

For `CCS(=O)(=O)c1ccc(OC)c(Nc2nccc(N(C)c3ccc(NC(=O)Nc4cc(C(F)(F)F)ccc4F)cc3)n2)c1` [Example 17, N-{4-[(2-{[5-(Ethylsulfonyl)-2-methoxyphenyl]amino}pyrimidin-4-yl)(methyl)amino]phenyl}-N′-[2-fluoro-5-(trifluoromethyl)phenyl]urea], which IC50 (Recombinant GST-Tie2) is on record?
Its IC50 is less than 100 nM.

And the IC50 (GST-VEGFR2)?
Its IC50 is less than 100 nM.

And the IC50 [1]?
The IC50 was less than 100 nM.

For `CN(c1ccc(NC(=O)NCc2ccccc2Cl)cc1)c1ccnc(Nc2cccc(S(N)(=O)=O)c2)n1` [Example 5, 3-({4-[[4-({[(2-chlorobenzyl)amino]carbonyl}amino)phenyl](methyl)amino]pyrimidin-2-yl}amino)benzenesulfonamide], which IC50 (Recombinant GST-Tie2) is on record?
The IC50 was less than 100 nM.

And the IC50 (GST-VEGFR2)?
The IC50 was less than 100 nM.

And the IC50 [1]?
The IC50 was less than 100 nM.

Which IC50 (Recombinant GST-Tie2) does the source give for `CN(c1ccc(NC(=O)Nc2cccc(Cl)c2)cc1)c1ccnc(Nc2cccc(S(N)(=O)=O)c2)n1` [Example 9, 3-({4-[[4-({[(3-Chlorophenyl)amino]carbonyl}amino)phenyl](methyl)amino]-pyrimidin-2-yl}amino)benzenesulfonamide] here?
Its IC50 is less than 100 nM.

What about the IC50 (GST-VEGFR2) of the same compound?
The IC50 was less than 100 nM.

And the IC50 [1]?
The IC50 was less than 100 nM.

`CN(c1ccc(NC(=O)Nc2ccc(OC(F)(F)F)cc2)cc1)c1ccnc(Nc2cccc(S(N)(=O)=O)c2)n1` [Example 1, 3-{[4-(methyl{4-[({[4-(trifluoromethoxy)phenyl]amino}carbonyl)amino]phenyl}-amino)pyrimidin-2-yl]amino}benzenesulfonamide] was tested. Which IC50 (Recombinant GST-Tie2) did it give?
Its IC50 is less than 100 nM.

And the IC50 (GST-VEGFR2)?
The IC50 was less than 100 nM.

And the IC50 [1]?
The IC50 was less than 100 nM.

What does the source list for `CCc1cccc(NC(=O)Nc2ccc(N(C)c3ccnc(Nc4ccc(S(N)(=O)=O)cc4)n3)cc2)c1` [Example 20, 4-({4-[[4-({[(3-ethylphenyl)amino]carbonyl}amino)phenyl](methyl)amino]pyrimidin-2-yl}amino)benzenesulfonamide]?
IC50 (Recombinant GST-Tie2): < 100 nM; IC50 (GST-VEGFR2): < 100 nM; IC50 [1]: < 100 nM

For `CN(c1ccc(NC(=O)Nc2cccc(F)c2)cc1)c1ccnc(Nc2cccc(S(N)(=O)=O)c2)n1` [Example 7, 3-({4-[[4-({[(3-Fluorophenyl)amino]corbonyl}amino)phenyl](methyl)amino]pyrimidin-2-yl}amino)benzenesulfonamide], which IC50 (Recombinant GST-Tie2) is on record?
Its IC50 is less than 100 nM.

What about the IC50 (GST-VEGFR2) of the same compound?
The IC50 was less than 100 nM.

And the IC50 [1]?
Its IC50 is less than 100 nM.

With `CN(c1ccc(NC(=O)Nc2ccc(C(F)(F)F)cc2)cc1)c1ccnc(Nc2cccc(S(N)(=O)=O)c2)n1` [Example 2, 3-{[4-(methyl{4-[({[4-(trifluoromethyl)phenyl]amino}carbonyl)amino]phenyl}amino)pyrimidin-2-yl]amino}benzenesulfonamide] as the compound, how does the IC50 (Recombinant GST-Tie2) read?
The IC50 was less than 100 nM.

What about the IC50 (GST-VEGFR2) of the same compound?
Its IC50 is less than 100 nM.

And the IC50 [1]?
The IC50 was less than 100 nM.

Which IC50 (Recombinant GST-Tie2) does the source give for `CN(c1ccc(NC(=O)Nc2ccc(Oc3ccccc3)cc2)cc1)c1ccnc(Nc2cccc(S(N)(=O)=O)c2)n1` [Example 3, 3-[(4-{methyl[4-({[(4-phenoxyphenyl)amino]carbonyl}amino)phenyl]amino}-pyrimidin-2-yl)amino]benzenesulfonamide] here?
Its IC50 is less than 100 nM.

And the IC50 (GST-VEGFR2)?
The IC50 was less than 100 nM.

What about the IC50 [1] of the same compound?
The IC50 was less than 100 nM.
